Measurements from patent US11045542B2, “Method of reducing reactogenicity induced by administration of vaccine or immunogenic composition” (GLAXOSMITHKLINE BIOLOGICALS, SA, priority 2015, dated 2021).

Columns and labels:
Type in all cases: in vivo, Mice
[1] = tested on: local immune cells at the injection site (muscle); assay: Effect of RvE1 on the local immune cells profile induced by adjuvants injection (flow cytometry of muscle cells); settings: muscles at 24 h
Description: Mice (n=6/gr) were injected intramuscularly with PBS, AS03 adjuvant (oil-in-water emulsion) or AS01B adjuvant (MPL+QS21 in liposomes). 1 h and 6 h later, synthetic RvE1 (0.2 μg/dose) or PBS was administered also intramuscularly. Muscles were collected at 24 h following adjuvant/PBS administration and local immune cells were extracted. The cells were stained with the following antibodies: Lytic, SiglecF, CD90.2, Ly6G, CD11b, CD11c, HLA DR, CD45 and CD19 and analysed by flow cytometry. The cell recruitment is expressed in number of cells per muscle. The plotted area represents the mean obtained for a specific subpopulation. A 2-way ANOVA was performed to compare the different groups. *: p<0.05. The chemical structure of the synthetic RvE1 used in the present experiment is identical to the chemical structure of RvE1 disclosed in Buckley et al. (“Proresolving Lipid Mediators and Mechanisms in the Resolution of Acute Inflammation”, 2014, Immunity 40: 315-327).

[2] = tested on: cytokines (TNFα, IL-6, IL1b and IFNγ) and chemokine (G-CSF, MCP-1, KC and MIP-1a) levels in muscle; assay: Effect of RvE1 on the local cytokine profile induced by adjuvants injection (CBA on muscle homogenates)
Description: Mice (n=6/gr) were injected intramuscularly with PBS, adjuvant AS03 or adjuvant AS01B. 1 h and 6 h later, the same synthetic RvE1 as the one used in Example 1 (0.2 μg/dose), or PBS was administered also intramuscularly. Muscles were collected at 4 h (A) and 24 h (B) following adjuvant or PBS administration and frozen at −70° C. Muscles were thawed and homogenized and cytokines (TNFα, IL-6, IL1b and IFNγ) and chemokine (G-CSF, MCP-1, KC and MIP-1a) levels in the cleared homogenates were measured by CBA (Becton Dickinson). The cytokine/chemokine concentrations are expressed in pg/mL. The plotted area represents the mean obtained for a specific cytokine/chemokine. A 2-way ANOVA was performed to compare the different groups. *: p<0.05 (See FIG. 3).

[3] = tested on: local immune cells at the injection site (muscle); assay: Effect of MaR1 on the local immune cells profile induced by adjuvant injection (flow cytometry of muscle cells); settings: MaR1 5 ng/dose intramuscularly 1 h prior to AS01B
Description: Mice (n=6/gr) were injected intramuscularly with synthetic 7-Maresin-1 (MaR1) (5 ng/dose) or PBS as a control. 1 h later, mice received intramuscularly adjuvant AS01B or PBS. Muscles were collected at 4 h and 24 h following 7-Maresin-1/PBS administration and local immune cells were extracted. The cells were stained with the following antibodies: Lytic, SiglecF, CD90.2, Ly6G, CD11b, CD11c, HLA DR, CD45 and CD19 and analysed by flow cytometry. The cell recruitment is expressed in number of cells per muscle. The plotted area represents the mean obtained for a specific subpopulation. A 2-way ANOVA was performed to compare the different groups. *: p<0.05. The chemical structure of the synthetic MaR1 used in the present experiment is identical to the chemical structure of MaR1 disclosed in Buckley et al. (“Proresolving Lipid Mediators and Mechanisms in the Resolution of Acute Inflammation”, 2014, Immunity 40: 315-327).

[4] = tested on: cytokines (TNFα, IL-6, IL1b and INFγ) and chemokine (G-CSF, MCP-1, KC and MIP-1a) levels in muscle; assay: Effect of MaR1 on the local cytokine profile induced by adjuvant injection (CBA on muscle homogenates); settings: MaR1 5 ng/dose intramuscularly 1 h prior to AS01B; 4 h post-injection of the MaR1
Description: Mice (n=6/gr) were injected intramuscularly with the same synthetic MaR1 as the one used in Example 2 (5 ng/dose), or PBS as a control. 1 h later, mice received intramuscularly adjuvant AS01B or PBS. Muscles were collected at 4 h and 24 h following MaR1/PBS administration and frozen at −70° C. Muscles were thawed and homogenized and cytokines (TNFα, IL-6, IL1b and INFγ) and chemokine (G-CSF, MCP-1, KC and MIP-1a) levels in the cleared homogenates were measured by CBA (Becton Dickinson). The cytokine/chemokine concentrations are expressed in pg/mL. The plotted area represents the mean obtained for a specific cytokine/chemokine. A 2-way ANOVA was performed to compare the different groups. *: p<0.05 (See FIG. 4).

[5] = tested on: CD4+ or CD8+ T cells expressing at least 2 cytokines; assay: Effect of MaR1 on specific T cell responses induced by vaccine injection (intracellular cytokine staining of spleen cells); settings: MaR1 5 ng/dose intramuscularly 1 h prior to OVA and HBS antigens in AS01B; vs antigens and adjuvant alone
Description: Mice (n=30/gr) were injected intramuscularly with the same synthetic MaR1 as the one used in Example 2 (5 ng/dose) or PBS as a control. 1 h later, mice were vaccinated with OVA (Ovalbumin) and HBS (Hepatitis B Surface) antigens re-suspended in adjuvant AS01B or in PBS. This vaccination scheme was repeated 15 days later. Spleens were removed 7 days after the second immunization, and immune cells were extracted and stimulated overnight with OVA (A) or HBS (B) peptides. After surface staining with anti-CD4 and anti-CD8 antibodies, cells were labeled intra-cellularly with anti-IL-2, anti-IFN-γ and anti-TNF-α and analyzed by flow cytometry. Results are expressed as percentages of CD4+ or CD8+ T cells expressing at least 2 cytokines among the ones tested. Each point represents an individual value, the bar represents the mean+/−SD (see FIG. 5).

[6] = tested on: Anti-OVA or anti-HBs antibodies; assay: Effect of MaR1 on specific antibody responses induced by vaccine injection (ELISA on sera); settings: MaR1 5 ng/dose intramuscularly 1 h prior to OVA and HBS antigens in AS01B; vs antigens and adjuvant alone
Description: Mice (n=30/gr) were injected intramuscularly with the same synthetic MaR1 as the one used in Example 2 (5 ng/dose), or PBS as a control. 1 h later, mice were vaccinated with OVA and HBS antigens re-suspended in adjuvant AS01B or in PBS. This vaccination scheme was repeated 15 days later. Sera were taken 7 days after the second immunization. Anti-OVA (A) or anti-HBs (B) antibodies were detected by ELISA. Antibody titers are expressed in ng/mL. Each point represents an individual value; the bar represents the mean+/−SD. (See FIG. 6).

CC[C@@H](O)/C=C/C=C\C[C@@H](O)/C=C/C=C/C=C\[C@@H](O)CCCC(=O)O [RvE1, Resolvin E1]
recruitment of immune cells at the injection site (number of cells per muscle) ([1]; RvE1 0.2 μg/dose intramuscularly 1 h and 6 h after AS01B, vs AS01B alone): The same conclusion holds true | recruitment of immune cells at the injection site (number of cells per muscle) ([1]; RvE1 0.2 μg/dose intramuscularly 1 h and 6 h after AS03, vs AS03 alone): significantly reduced recruitment of all the immune cell types tested | pattern of immune cells at the injection site ([1]; RvE1 on its own with PBS alone, compared with PBS alone): only a minimal effect on the pattern of immune cells | modulation of local cytokines/chemokines concentration ([2]; RvE1 0.2 μg/dose intramuscularly after AS01B, 4 h post-injection of the adjuvant): no significant modulating effect was observed | modulation of local cytokines/chemokines concentration ([2]; RvE1 0.2 μg/dose intramuscularly after AS01B, 24 h post-injection of the adjuvant): no significant modulating effect was observed | modulation of local cytokines/chemokines concentration ([2]; RvE1 0.2 μg/dose intramuscularly after AS03, 4 h post-injection of the adjuvant): a significant modulating effect was observed | modulation of local cytokines/chemokines concentration ([2]; RvE1 0.2 μg/dose intramuscularly after AS03, 24 h post-injection of the adjuvant): no significant effect was observed

CC/C=C\C/C=C\C[C@H](O)\C=C/C=C/C=C/[C@H](O)C/C=C\CCC(=O)O [MaR1, 7-Maresin-1]
pattern of immune cells at the injection site ([3]; 4 h post-injection): may be too early to detect an effect | pattern of immune cells at the injection site ([3]; 24 h post-injection): increase of B cells and T cells recruitment on site | modulation of local cytokines/chemokines profile [4]: significant transient modulating effect | CD4+ T cell response induced by adjuvanted vaccine [5]: did not negatively impact the T cell immune response | CD8+ T cell response induced by adjuvanted vaccine [5]: did not negatively impact the T cell immune response | anti-HBS antibody response induced by adjuvanted vaccine [6]: did not negatively impact the antibody immune response | anti-OVA antibody response induced by adjuvanted vaccine [6]: did not negatively impact the antibody immune response
